The text below walks through data of PMC7324608 (Scientific Reports, 2020).

Assay [1] concerns the target T1, HpHtrA S164A (Helicobacter pylori, UniProt G2J5T2, S164A).
T1 sequence (G2J5T2 18-475 S164A): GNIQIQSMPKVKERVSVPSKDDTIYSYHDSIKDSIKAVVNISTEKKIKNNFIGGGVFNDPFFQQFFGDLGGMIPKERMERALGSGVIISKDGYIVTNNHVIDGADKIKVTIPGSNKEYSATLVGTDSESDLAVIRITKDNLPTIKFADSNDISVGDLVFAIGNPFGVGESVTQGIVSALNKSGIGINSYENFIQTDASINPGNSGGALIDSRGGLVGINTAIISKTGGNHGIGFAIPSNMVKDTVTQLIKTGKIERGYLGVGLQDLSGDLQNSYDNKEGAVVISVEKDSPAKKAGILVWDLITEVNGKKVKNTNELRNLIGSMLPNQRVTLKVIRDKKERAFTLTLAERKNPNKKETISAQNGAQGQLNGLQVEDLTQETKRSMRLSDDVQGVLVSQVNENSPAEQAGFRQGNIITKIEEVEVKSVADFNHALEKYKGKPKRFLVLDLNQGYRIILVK
Briefly: thermal shift assay. The format is binding. Further details: (HpHtrA, G18-K475, UniProt G2J5T2); GST (N, cleaved yes); made in house; host or cells: E. coli BL21. How it is done:
Recombinant HpHtrA proteins (wt, S164A, D165A, S166A, D168A) in 50 mM HEPES buffer (pH 7.4) were mixed with SYPRO Orange (Sigma-Aldrich, Vienna, Austria) to final concentrations of 4 µM HpHtrA and 7 × SYPRO Orange in a 96-well PCR plate. […] Fluorescence data was collected using an Applied Bioscience StepOne Plus PCR cycler (Thermo Fisher Scientific, Schwerte, Germany) during a temperature ramp from 25–95 °C (0.5 °C per min) with a 4 min hold at 25 °C and 95 °C. SYPRO Orange binds to exposed hydrophobic regions within the denatured HpHtrA proteins, which increases the fluorescence of the dye[57],[58]. The fluorescence emission signal can then be used to determine the melting temperature of the protein, which is located at the infliction point of the fluorescence signal curve. The experiment was performed in triplicates.

The target in assay [2] is T2, HpHtrA D168A (Helicobacter pylori, UniProt G2J5T2, D168A).
T2 sequence (G2J5T2 18-475 D168A): T1 sequence (G2J5T2 18-475 S164A) with A147S, D151A
The following applies: MST. The method, then:
(§1) Synthesis of 2-Abz-AQRVAFY(3-NO2)-NH2. The peptide was assembled manually on a 20 µmol scale.
(§2) The side-chain protecting groups were Pbf for Arg, and Trt for Gln. Fmoc deprotection was carried out with 25% piperidine in DMF/NMP (80:20, v/v) for 3 min, and 12.5% piperidine in DMF/NMP (80:20, v/v) for 12 min. The double couplings (2x45 min) were accomplished with the mixture Fmoc-AA-OH/HOBt/HBTU/DIPEA (5:5:4.8:10 equiv.). 2 -Boc-Abz-OH was coupled with the same protocol.
(§3) Afterwards, the peptidyl-resin was treated with 25% piperidine in DMF/NMP (80:20, v/v) (2x12 min) to deacylate the 3-nitro-tyrosine side chain. The peptide was simultaneously cleaved from the resin and deprotected by using the mixture TFA/H2O/TIA/EDT/TIS (90:3:1:3:3; Vtot = 1 ml) for about 3 h, precipitated from ice-cold diethyl ether, recovered by centrifugation at 4 °C for 6 min, washed four times with ice-cold diethyl ether, and dried in vacuo. The solid was dissolved in water and lyophilized.
(§4) Microscale thermophoresis .
(§5) D168A, MicroScale Thermophoresis (MST) analysis was performed using the Monolith NT.115 (NanoTemper Technologies). HpHtrA proteases were labeled with red fluorescent dye NT -650-NHS (amine reactive) according to the manufacturer’s protocol. Remaining free dye was removed by buffer exchange column chromatography and proteins were eluted in 50 mM Tris pH 7.4, 150 mM NaCl, 0.04% Tween. 5 nM of labelled HpHtrA was incubated for 15 minutes at RT with decreasing […]
(§6) Measurement was performed with premium treated capillaries (NanoTemper Technologies) and the Monolith NT.115 Microscale Thermophoresis device. Data analysis was performed with MO.Affinity Analysis v2.3 (NanoTemper Technologies) and GraphPad Prism Software (Version 8.0.2). Three independent experiments were […]

Assay [3] concerns the target T3, HpHtrA S166A (Helicobacter pylori, UniProt G2J5T2, S166A).
T3 sequence (G2J5T2 18-475 S166A): T1 sequence (G2J5T2 18-475 S164A) with A147S, S149A
The note with it: MST. The method, then: as §1, §2, §3, §4, §5, §6

Substitutions are numbered along the chain they refer to.

`[Cu+2]` [Cu^++, CuCl2]: the “thermal destabilization (ΔTm)” value in assay [1] (higher concentrations of ion) is “destabilized”. Moreover, the “thermal stabilization (ΔTm)” value in assay [1] (low/increasing concentrations of ion) was “stabilized”.
Consider `[Zn+2]` [Zn^++, ZnCl2], for which the values for the Response amplitude in assay [2] and in assay [3] were 2.7 and 3.9, respectively.
